Columns and labels:
Type in all cases: in vivo
Scirpus juncoides = test: Test Example 1: herbicidal activity, application before weed generation in submerged conditions (symbol B); conditions: application herbicide amount 320 g/ha
Summary of the method: (§1)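 Pre-emergence, paddy conditions: emulsifiable formulation diluted in water, dosed onto floodwater (4 cm depth) on sowing day. Alluvial soil; weeds sown mixed; rice transplanted at 2.5-leaf stage. Greenhouse 25–30 °C, 3 wk. Score 0–5 (5 = ≥90% kill, 0 = ≤5%).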

rapeseed = test: Test Example 4: effect on crop by soil treatment (symbol g); conditions: for g: rapeseed, effect on crop grade: application herbicide amount 320 g/ha
Summary of the method: (§2)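 Soil-treatment setup: crop and weed seeds were spot-sown into sterilized diluvial soil, then buried beneath approximately 1.5 cm of it, and the boxes were housed in a 25–30° C. greenhouse.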

Digitaria ciliaris = test: Test Example 5: herbicidal effect by foliage application, plastic box (symbol F); conditions: 320 g/ha, 3 weeks after application
Summary of the method: (§3)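 Leaf-applied emulsion, water-diluted to a preset herbicide dose, on two-week-old seedlings raised in a 25° C. to 30° C. greenhouse; injury rated at 3 weeks using earlier criteria.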

Monochoria vaginalis = test: Test Example 2: herbicidal activity, application during weed generation in submerged conditions (symbol C); conditions: Table 23; application herbicide amount 320 g/ha; grade 0-5 by criteria of Test Example 1
Summary of the method: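 Flooded-soil post-emergence test: emulsion of compound, water-diluted to target rate, applied to paddy water surface at 1–2 leaf stage of mixed-sown weeds (alluvial soil, 4 cm water, 25–30° C. greenhouse); visual rating 3 weeks after application.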

Amaranthus retroflexus = test: Test Example 4: herbicidal effect by soil treatment (symbol N)
Summary of the method: (§4)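 Seeds were sown in sterilized diluvial soil, covered with about 1.5 cm of soil, and the soil surface was sprayed with a water-diluted emulsion of the compound at a predetermined rate. Plants grew in a greenhouse at 25° C. to 30° C.; effects were scored visually 3 weeks after application.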

Avena fatua = test: Test Example 4: herbicidal effect by soil treatment (symbol I)
Summary of the method: as §4

Veronica persica = test: Test Example 4: herbicidal effect by soil treatment (symbol R)
Summary of the method: as §4

[1] = test system: Echinochloa oryzacola Vasing.; test: Test Example 1: herbicidal activity, application before weed generation in submerged conditions (symbol A); conditions: application herbicide amount 320 g/ha
Summary of the method: as §1

soybean = test: Test Example 4: effect on crop by soil treatment (symbol d); conditions: for d: soybean, effect on crop grade: application herbicide amount 320 g/ha
Summary of the method: as §2

[2] = test system: Echinochloa crus-galli var. crus-galli; test: Test Example 5: herbicidal effect by foliage application, plastic box (symbol H); conditions: 320 g/ha, 3 weeks after application
Summary of the method: as §3

[3] = test system: directly sowed rice plant; test: Test Example 3: effect on crop by foliage application, Wagner pot (symbol b); conditions: application herbicide amount 320 g/ha
Summary of the method: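 Plants are raised from seed in flooded paddy conditions: water stands 0.1–0.5 cm over alluvial soil, and the pot is kept in a greenhouse at 25–30 °C. Species sown are barnyardgrass (E. crus-galli var. crus-galli), Leptochloa chinensis, Cyperus difformis and rice.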

beet = test: Test Example 4: effect on crop by soil treatment (symbol f); conditions: for f: beet, effect on crop grade: application herbicide amount 320 g/ha
Summary of the method: as §2

Alopecurus myosuroides = test: Test Example 4: herbicidal effect by soil treatment (symbol J)
Summary of the method: as §4

transplanted rice plant = test: Test Example 1: effect on crop, application before weed generation in submerged conditions (symbol a); conditions: application herbicide amount 320 g/ha
Summary of the method: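 Rice at 2.5 leaf stage transplanted into submerged soil (4 cm depth) sown with three weed species; herbicide applied before weed emergence.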

Abutilon theophrasti = test: Test Example 4: herbicidal effect by soil treatment (symbol M)
Summary of the method: as §4

[4] = application herbicide amount 320 g/ha

SMILES | Herbicidal effect grade, B: Scirpus juncoides (Scirpus juncoides) | g: rapeseed, effect on crop grade (rapeseed) | F: Digitaria ciliaris, herbicidal effect grade (Digitaria ciliaris) | Herbicidal effect grade, C: Monochoria vaginalis (Monochoria vaginalis) | N: Amaranthus retroflexus, herbicidal effect grade (Amaranthus retroflexus; [4]) | I: Avena fatua, herbicidal effect grade (Avena fatua; [4]) | R: Veronica persica, herbicidal effect grade (Veronica persica; [4]) | Herbicidal effect grade, A: Echinochloa oryzacola Vasing. [1] | d: soybean, effect on crop grade (soybean) | H: Echinochloa crus-galli var. crus-galli, herbicidal effect grade [2] | effect on crop b (directly sowed rice plant), grade 0-5 [3] | f: beet, effect on crop grade (beet) | J: Alopecurus myosuroides, herbicidal effect grade (Alopecurus myosuroides; [4]) | Effect grade on crop, a: transplanted rice plant (transplanted rice plant) | M: Abutilon theophrasti, herbicidal effect grade (Abutilon theophrasti; [4]) | other results
CCOC(=O)C(C(=O)c1ccccn1)C1CC(O)=C(c2c(C)cc(C)cc2C)C1=O (stereo not drawn) [2-013] | 0 (Herbicidal ratio of 5% or lower (almost no effect)) | 0 (Herbicidal ratio of 5% or lower (almost no effect)) | 4 (Herbicidal ratio of 70% or higher and lower than 90%) | 0 (Herbicidal ratio of 5% or lower (almost no effect)) | 0 (Herbicidal ratio of 5% or lower (almost no effect)) | 0 (Herbicidal ratio of 5% or lower (almost no effect)) | 0 (Herbicidal ratio of 5% or lower (almost no effect)) | 0 (Herbicidal ratio of 5% or lower (almost no effect)) | 0 (Herbicidal ratio of 5% or lower (almost no effect)) | 5 (Herbicidal ratio of 90% or more (almost completely withered)) | 0 (Herbicidal ratio of 5% or lower (almost no effect)) | 0 (Herbicidal ratio of 5% or lower (almost no effect)) | 0 (Herbicidal ratio of 5% or lower (almost no effect)) | 0 (Herbicidal ratio of 5% or lower (almost no effect)) | 0 (Herbicidal ratio of 5% or lower (almost no effect)) | –
CON=C(C)CC1CC(O)=C(c2c(C)cc(C)cc2Br)C1=O (stereo not drawn) [6-038] | 4 (Herbicidal ratio of 70% or higher and lower than 90%) | 5 (Herbicidal ratio of 90% or more (almost completely withered)) | 5 (Herbicidal ratio of 90% or more (almost completely withered)) | 1 (Herbicidal ratio of 5% or higher and lower than 20%) | 4 (Herbicidal ratio of 70% or higher and lower than 90%) | 2 (Herbicidal ratio of 20% or higher and lower than 40%) | 1 (Herbicidal ratio of 5% or higher and lower than 20%) | 5 (Herbicidal ratio of 90% or more (almost completely withered)) | 1 (Herbicidal ratio of 5% or higher and lower than 20%) | 5 (Herbicidal ratio of 90% or more (almost completely withered)) | 5 (Herbicidal ratio of 90% or more (almost completely withered)) | 0 (Herbicidal ratio of 5% or lower (almost no effect)) | 5 (Herbicidal ratio of 90% or more (almost completely withered)) | 5 (Herbicidal ratio of 90% or more (almost completely withered)) | 5 (Herbicidal ratio of 90% or more (almost completely withered)) | –
CC(=O)C(C(C)=O)C1CC(O)=C(c2c(C)cc(C)cc2C)C1=O (stereo not drawn) [2-002] | 0 (Herbicidal ratio of 5% or lower (almost no effect)) | – | 4 (Herbicidal ratio of 70% or higher and lower than 90%) | 0 (Herbicidal ratio of 5% or lower (almost no effect)) | – | – | – | 0 (Herbicidal ratio of 5% or lower (almost no effect)) | – | 3 (Herbicidal ratio of 40% or higher and lower than 70%) | 0 (Herbicidal ratio of 5% or lower (almost no effect)) | – | – | 0 (Herbicidal ratio of 5% or lower (almost no effect)) | – | g: rapeseed, effect grade on crop (rapeseed; 320 g/ha): 0 (Herbicidal ratio of 5% or lower (almost no effect)); N: Amaranthus retroflexus, herbicidal effect grade (Amaranthus retroflexus; 320 g/ha): 0 (Herbicidal ratio of 5% or lower (almost no effect)); I: Avena fatua, herbicidal effect grade (Avena fatua; 320 g/ha): 0 (Herbicidal ratio of 5% or lower (almost no effect)); R: Veronica persica, herbicidal effect grade (Veronica persica; 320 g/ha): 0 (Herbicidal ratio of 5% or lower (almost no effect)); d: soybean, effect grade on crop (soybean; 320 g/ha): 0 (Herbicidal ratio of 5% or lower (almost no effect)); f: beet, effect grade on crop (beet; 320 g/ha): 0 (Herbicidal ratio of 5% or lower (almost no effect)); J: Alopecurus myosuroides, herbicidal effect grade (Alopecurus myosuroides; 320 g/ha): 0 (Herbicidal ratio of 5% or lower (almost no effect)); M: Abutilon theophrasti, herbicidal effect grade (Abutilon theophrasti; 320 g/ha): 0 (Herbicidal ratio of 5% or lower (almost no effect))
CCOC(=O)C(C(=O)Cc1ccccc1)C1CC(O)=C(c2c(C)cc(C)cc2C)C1=O (stereo not drawn) [2-011] | 0 (Herbicidal ratio of 5% or lower (almost no effect)) | 0 (Herbicidal ratio of 5% or lower (almost no effect)) | 0 (Herbicidal ratio of 5% or lower (almost no effect)) | 0 (Herbicidal ratio of 5% or lower (almost no effect)) | 0 (Herbicidal ratio of 5% or lower (almost no effect)) | 0 (Herbicidal ratio of 5% or lower (almost no effect)) | 0 (Herbicidal ratio of 5% or lower (almost no effect)) | 0 (Herbicidal ratio of 5% or lower (almost no effect)) | 0 (Herbicidal ratio of 5% or lower (almost no effect)) | 2 (Herbicidal ratio of 20% or higher and lower than 40%) | 0 (Herbicidal ratio of 5% or lower (almost no effect)) | 0 (Herbicidal ratio of 5% or lower (almost no effect)) | 0 (Herbicidal ratio of 5% or lower (almost no effect)) | 0 (Herbicidal ratio of 5% or lower (almost no effect)) | 0 (Herbicidal ratio of 5% or lower (almost no effect)) | –
CON=C(C)CC1CC(O)=C(c2c(C)cc(C)cc2OC)C1=O (stereo not drawn) [6-037, 3-hydroxy-2-(2-methoxy-4,6-dimethylphenyl)-5-{2-(methoxyimino)propyl}cyclopent-2-enone] | 5 (Herbicidal ratio of 90% or more (almost completely withered)) | 3 (Herbicidal ratio of 40% or higher and lower than 70%) | 5 (Herbicidal ratio of 90% or more (almost completely withered)) | 4 (Herbicidal ratio of 70% or higher and lower than 90%) | 3 (Herbicidal ratio of 40% or higher and lower than 70%) | 5 (Herbicidal ratio of 90% or more (almost completely withered)) | 1 (Herbicidal ratio of 5% or higher and lower than 20%) | 5 (Herbicidal ratio of 90% or more (almost completely withered)) | 2 (Herbicidal ratio of 20% or higher and lower than 40%) | 5 (Herbicidal ratio of 90% or more (almost completely withered)) | 5 (Herbicidal ratio of 90% or more (almost completely withered)) | 0 (Herbicidal ratio of 5% or lower (almost no effect)) | 5 (Herbicidal ratio of 90% or more (almost completely withered)) | 5 (Herbicidal ratio of 90% or more (almost completely withered)) | 5 (Herbicidal ratio of 90% or more (almost completely withered)) | –
